{"source": "paper doi:10.1101/2021.04.08.439011v1", "about": "(biorxiv, 2021)", "conditions_in_all_cases": "1 µM; binder", "key": {"ULK1": {"target": "ULK1 (Homo sapiens, UniProt O75385)"}, "GRK3": {"target": "GRK3 (Homo sapiens, UniProt P35626)"}, "MYLK2": {"target": "MYLK2 (Homo sapiens, UniProt Q9H1R3)"}, "ADCK4": {"target": "ADCK4 (Homo sapiens, UniProt Q96D53)"}, "PKAC-alpha": {"target": "PKAC-alpha (Homo sapiens, UniProt P17612)"}, "TEC": {"target": "TEC (Homo sapiens, UniProt P42680)"}, "PRKR": {"target": "PRKR (Homo sapiens, UniProt P19525)", "sequence (P19525 whole entry)": "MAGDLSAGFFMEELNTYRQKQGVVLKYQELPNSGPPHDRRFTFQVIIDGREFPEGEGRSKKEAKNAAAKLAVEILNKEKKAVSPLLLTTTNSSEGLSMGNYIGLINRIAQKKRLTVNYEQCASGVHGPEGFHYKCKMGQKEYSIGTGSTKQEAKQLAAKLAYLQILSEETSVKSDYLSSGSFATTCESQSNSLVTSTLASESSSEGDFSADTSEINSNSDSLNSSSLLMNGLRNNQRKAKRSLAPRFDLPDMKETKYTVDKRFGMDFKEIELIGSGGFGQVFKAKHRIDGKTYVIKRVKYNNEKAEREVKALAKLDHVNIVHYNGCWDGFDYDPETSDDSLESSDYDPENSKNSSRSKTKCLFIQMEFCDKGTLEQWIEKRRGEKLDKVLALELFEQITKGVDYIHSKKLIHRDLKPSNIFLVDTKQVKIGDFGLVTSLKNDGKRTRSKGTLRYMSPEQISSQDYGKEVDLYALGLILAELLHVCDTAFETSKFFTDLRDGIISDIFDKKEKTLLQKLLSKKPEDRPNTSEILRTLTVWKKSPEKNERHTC"}, "TRKC": {"target": "TRKC (Homo sapiens, UniProt Q16288)"}, "TLK2": {"target": "TLK2 (Homo sapiens, UniProt Q86UE8)"}, "MERTK": {"target": "MERTK (Homo sapiens, UniProt Q12866)"}, "SBK1": {"target": "SBK1 (Homo sapiens, UniProt Q52WX2)"}, "EPHB3": {"target": "EPHB3 (Homo sapiens, UniProt P54753)"}, "MLK3": {"target": "MLK3 (Homo sapiens, UniProt Q16584)"}, "KIT(A829P)": {"target": "KIT(A829P) (Homo sapiens, UniProt P10721, A829P)"}, "ALK(C1156Y)": {"target": "ALK(C1156Y) (Homo sapiens, UniProt Q9UM73, C1156Y)", "sequence (Q9UM73 whole entry C1156Y)": "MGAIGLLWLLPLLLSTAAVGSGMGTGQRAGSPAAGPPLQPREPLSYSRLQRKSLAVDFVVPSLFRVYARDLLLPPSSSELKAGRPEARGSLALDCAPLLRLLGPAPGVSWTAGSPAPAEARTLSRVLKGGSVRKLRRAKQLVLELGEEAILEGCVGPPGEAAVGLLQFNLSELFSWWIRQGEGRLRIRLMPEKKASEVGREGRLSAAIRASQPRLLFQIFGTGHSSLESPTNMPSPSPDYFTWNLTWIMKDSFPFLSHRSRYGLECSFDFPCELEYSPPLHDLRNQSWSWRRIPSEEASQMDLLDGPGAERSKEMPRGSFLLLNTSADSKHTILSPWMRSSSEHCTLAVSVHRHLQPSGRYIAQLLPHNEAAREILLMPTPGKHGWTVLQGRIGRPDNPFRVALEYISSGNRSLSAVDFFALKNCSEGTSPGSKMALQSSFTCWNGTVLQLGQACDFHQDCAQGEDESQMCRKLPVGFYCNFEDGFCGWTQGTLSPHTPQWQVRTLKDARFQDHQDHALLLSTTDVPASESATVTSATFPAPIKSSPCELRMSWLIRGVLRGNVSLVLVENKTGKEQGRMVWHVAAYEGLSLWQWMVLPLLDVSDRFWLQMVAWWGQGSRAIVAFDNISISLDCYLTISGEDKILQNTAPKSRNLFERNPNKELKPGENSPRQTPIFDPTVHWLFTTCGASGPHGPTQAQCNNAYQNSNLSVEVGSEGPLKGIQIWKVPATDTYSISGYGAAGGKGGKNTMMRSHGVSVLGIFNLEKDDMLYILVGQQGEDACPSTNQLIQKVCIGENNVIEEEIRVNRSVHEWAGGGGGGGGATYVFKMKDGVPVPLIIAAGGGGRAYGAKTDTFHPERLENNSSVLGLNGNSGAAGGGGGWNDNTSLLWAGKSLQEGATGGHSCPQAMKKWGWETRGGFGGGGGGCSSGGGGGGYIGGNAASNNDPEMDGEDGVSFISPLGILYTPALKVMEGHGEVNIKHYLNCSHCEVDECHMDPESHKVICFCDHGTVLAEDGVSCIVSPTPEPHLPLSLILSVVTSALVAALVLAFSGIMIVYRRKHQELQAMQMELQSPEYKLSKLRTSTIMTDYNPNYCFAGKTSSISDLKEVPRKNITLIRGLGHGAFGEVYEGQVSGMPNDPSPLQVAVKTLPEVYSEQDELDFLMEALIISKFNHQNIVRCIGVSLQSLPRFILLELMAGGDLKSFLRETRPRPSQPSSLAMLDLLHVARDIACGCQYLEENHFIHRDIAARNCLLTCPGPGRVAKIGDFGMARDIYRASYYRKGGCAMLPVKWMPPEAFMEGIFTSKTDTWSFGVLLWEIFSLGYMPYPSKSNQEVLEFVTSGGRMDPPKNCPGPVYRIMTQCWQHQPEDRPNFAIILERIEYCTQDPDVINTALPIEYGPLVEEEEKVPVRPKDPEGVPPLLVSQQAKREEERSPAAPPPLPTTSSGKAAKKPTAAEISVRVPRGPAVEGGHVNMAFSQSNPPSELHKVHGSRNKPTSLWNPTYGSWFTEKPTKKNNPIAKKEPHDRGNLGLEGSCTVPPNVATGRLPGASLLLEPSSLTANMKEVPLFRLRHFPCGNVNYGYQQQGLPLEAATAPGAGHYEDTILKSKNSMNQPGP"}, "CDK8": {"target": "CDK8 (Homo sapiens, UniProt P49336)"}, "FLT3(D835H)": {"target": "FLT3(D835H) (Homo sapiens, UniProt P36888, D835H)"}, "CSNK1D": {"target": "CSNK1D (Homo sapiens, UniProt P48730)", "sequence (P48730 whole entry)": "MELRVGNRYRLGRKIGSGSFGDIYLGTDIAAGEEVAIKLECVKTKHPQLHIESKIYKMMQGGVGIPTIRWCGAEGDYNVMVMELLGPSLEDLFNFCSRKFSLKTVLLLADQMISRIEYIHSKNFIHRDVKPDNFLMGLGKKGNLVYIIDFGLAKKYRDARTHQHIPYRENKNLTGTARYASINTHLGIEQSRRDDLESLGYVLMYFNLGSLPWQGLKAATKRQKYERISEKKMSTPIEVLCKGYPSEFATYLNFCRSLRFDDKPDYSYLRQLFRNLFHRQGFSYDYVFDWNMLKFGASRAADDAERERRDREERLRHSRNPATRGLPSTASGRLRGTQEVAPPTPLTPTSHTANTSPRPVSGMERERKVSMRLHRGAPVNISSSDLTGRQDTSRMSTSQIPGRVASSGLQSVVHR"}, "PIK3C2G": {"target": "PIK3C2G (Homo sapiens, UniProt O75747)"}, "EPHA2": {"target": "EPHA2 (Homo sapiens, UniProt P29317)"}, "PLK3": {"target": "PLK3 (Homo sapiens, UniProt Q9H4B4)", "sequence (Q9H4B4 whole entry)": "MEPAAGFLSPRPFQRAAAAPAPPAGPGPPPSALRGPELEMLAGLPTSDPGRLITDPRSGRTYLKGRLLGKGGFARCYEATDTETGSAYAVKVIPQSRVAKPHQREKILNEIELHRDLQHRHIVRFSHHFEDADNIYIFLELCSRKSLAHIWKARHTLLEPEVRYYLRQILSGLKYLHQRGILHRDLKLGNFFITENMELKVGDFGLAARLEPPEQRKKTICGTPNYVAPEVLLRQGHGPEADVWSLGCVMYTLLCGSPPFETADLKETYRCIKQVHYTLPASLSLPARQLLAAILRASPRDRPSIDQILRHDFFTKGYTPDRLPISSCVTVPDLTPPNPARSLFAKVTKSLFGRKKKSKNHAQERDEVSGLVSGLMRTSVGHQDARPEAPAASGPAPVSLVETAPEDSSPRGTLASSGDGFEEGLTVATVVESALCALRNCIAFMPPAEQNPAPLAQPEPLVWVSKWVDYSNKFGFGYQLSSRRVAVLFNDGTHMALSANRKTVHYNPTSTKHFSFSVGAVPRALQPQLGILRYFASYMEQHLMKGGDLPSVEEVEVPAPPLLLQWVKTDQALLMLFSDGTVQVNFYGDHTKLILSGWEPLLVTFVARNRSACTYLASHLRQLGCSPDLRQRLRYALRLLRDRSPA"}, "VEGFR2": {"target": "VEGFR2 (Homo sapiens, UniProt P35968)"}, "ZAP70": {"target": "ZAP70 (Homo sapiens, UniProt P43403)"}, "NEK5": {"target": "NEK5 (Homo sapiens, UniProt Q6P3R8)", "sequence (Q6P3R8 whole entry)": "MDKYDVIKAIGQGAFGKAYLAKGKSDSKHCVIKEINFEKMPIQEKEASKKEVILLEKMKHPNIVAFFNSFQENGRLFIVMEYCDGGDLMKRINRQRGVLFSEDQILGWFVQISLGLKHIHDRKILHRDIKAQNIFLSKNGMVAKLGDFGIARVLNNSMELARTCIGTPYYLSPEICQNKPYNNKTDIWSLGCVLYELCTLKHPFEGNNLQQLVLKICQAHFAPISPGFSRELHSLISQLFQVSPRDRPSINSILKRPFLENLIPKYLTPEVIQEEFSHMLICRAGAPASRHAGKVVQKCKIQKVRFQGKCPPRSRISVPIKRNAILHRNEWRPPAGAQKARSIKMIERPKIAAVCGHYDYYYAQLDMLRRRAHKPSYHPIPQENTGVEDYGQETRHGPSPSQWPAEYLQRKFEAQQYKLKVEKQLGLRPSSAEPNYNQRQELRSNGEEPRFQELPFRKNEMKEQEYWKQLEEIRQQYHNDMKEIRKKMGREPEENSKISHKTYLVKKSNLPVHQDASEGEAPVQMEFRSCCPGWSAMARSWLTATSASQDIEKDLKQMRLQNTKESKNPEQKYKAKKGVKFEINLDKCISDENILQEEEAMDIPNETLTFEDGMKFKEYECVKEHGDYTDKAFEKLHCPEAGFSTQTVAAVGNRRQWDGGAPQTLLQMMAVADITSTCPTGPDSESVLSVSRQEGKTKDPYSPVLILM"}, "PAK3": {"target": "PAK3 (Homo sapiens, UniProt O75914)", "sequence (O75914 whole entry)": "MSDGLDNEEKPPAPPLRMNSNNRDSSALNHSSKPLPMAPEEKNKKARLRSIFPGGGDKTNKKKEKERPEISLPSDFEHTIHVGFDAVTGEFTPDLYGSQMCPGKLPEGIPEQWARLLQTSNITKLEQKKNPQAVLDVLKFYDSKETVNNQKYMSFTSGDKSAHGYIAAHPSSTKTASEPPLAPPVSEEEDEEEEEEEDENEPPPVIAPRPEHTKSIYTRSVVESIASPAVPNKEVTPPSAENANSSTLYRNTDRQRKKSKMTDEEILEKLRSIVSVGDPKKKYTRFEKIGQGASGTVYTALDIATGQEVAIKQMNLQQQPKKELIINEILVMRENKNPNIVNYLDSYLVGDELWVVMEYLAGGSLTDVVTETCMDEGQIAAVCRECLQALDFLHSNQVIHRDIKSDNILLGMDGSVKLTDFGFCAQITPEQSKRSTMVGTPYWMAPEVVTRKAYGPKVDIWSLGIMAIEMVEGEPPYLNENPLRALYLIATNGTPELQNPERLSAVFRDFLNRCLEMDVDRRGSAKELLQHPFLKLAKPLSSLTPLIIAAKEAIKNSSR"}, "ABL2": {"target": "ABL2 (Homo sapiens, UniProt P42684)"}, "CIT": {"target": "CIT (Homo sapiens, UniProt O14578)"}, "RIOK3": {"target": "RIOK3 (Homo sapiens, UniProt O14730)", "sequence (O14730 whole entry)": "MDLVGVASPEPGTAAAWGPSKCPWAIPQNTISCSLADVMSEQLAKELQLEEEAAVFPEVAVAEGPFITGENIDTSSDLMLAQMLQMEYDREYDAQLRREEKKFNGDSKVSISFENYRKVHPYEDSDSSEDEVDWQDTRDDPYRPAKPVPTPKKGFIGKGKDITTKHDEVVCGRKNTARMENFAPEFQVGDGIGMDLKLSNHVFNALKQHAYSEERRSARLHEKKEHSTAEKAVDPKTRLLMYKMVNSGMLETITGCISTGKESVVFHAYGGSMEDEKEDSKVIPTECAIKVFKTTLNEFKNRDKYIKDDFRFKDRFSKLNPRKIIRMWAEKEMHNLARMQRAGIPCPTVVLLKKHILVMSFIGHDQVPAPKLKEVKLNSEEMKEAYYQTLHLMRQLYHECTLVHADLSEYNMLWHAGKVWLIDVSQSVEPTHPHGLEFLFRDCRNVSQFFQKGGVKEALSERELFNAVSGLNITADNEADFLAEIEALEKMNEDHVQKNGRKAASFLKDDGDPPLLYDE"}, "TNK2": {"target": "TNK2 (Homo sapiens, UniProt Q07912)"}, "TRKB": {"target": "TRKB (Homo sapiens, UniProt Q16620)"}, "BRK": {"target": "BRK (Homo sapiens, UniProt Q13882)"}}, "data": [{"smiles": "CNc1ncc2cc(-c3ccc(-c4cccc(C)n4)cc3Cl)c(=O)n(C[C@H]3OC[C@H](N)CO3)c2n1", "note": "[compound 6, G-5555]", "values": [{"measurement": "Percent Control", "setting": "ULK1", "result": 85, "unit": "%"}, {"measurement": "Percent Control", "setting": "GRK3", "result": 72, "unit": "%"}, {"measurement": "Percent Control", "setting": "MYLK2", "result": 81, "unit": "%"}, {"measurement": "Percent Control", "setting": "ADCK4", "result": 100, "unit": "%"}, {"measurement": "Percent Control", "setting": "PKAC-alpha", "result": 100, "unit": "%"}, {"measurement": "Percent Control", "setting": "TEC", "result": 100, "unit": "%"}, {"measurement": "Percent Control", "setting": "PRKR", "result": 94, "unit": "%"}, {"measurement": "Percent Control", "setting": "TRKC", "result": 96, "unit": "%"}, {"measurement": "Percent Control", "setting": "TLK2", "result": 100, "unit": "%"}, {"measurement": "Percent Control", "setting": "MERTK", "result": 100, "unit": "%"}, {"measurement": "Percent Control", "setting": "SBK1", "result": 100, "unit": "%"}, {"measurement": "Percent Control", "setting": "EPHB3", "result": 100, "unit": "%"}, {"measurement": "Percent Control", "setting": "MLK3", "result": 100, "unit": "%"}, {"measurement": "Percent Control", "setting": "KIT(A829P)", "result": 63, "unit": "%"}, {"measurement": "Percent Control", "setting": "ALK(C1156Y)", "result": 100, "unit": "%"}, {"measurement": "Percent Control", "setting": "CDK8", "result": 100, "unit": "%"}, {"measurement": "Percent Control", "setting": "FLT3(D835H)", "result": 99, "unit": "%"}, {"measurement": "Percent Control", "setting": "CSNK1D", "result": 100, "unit": "%"}, {"measurement": "Percent Control", "setting": "PIK3C2G", "result": 100, "unit": "%"}, {"measurement": "Percent Control", "setting": "EPHA2", "result": 100, "unit": "%"}, {"measurement": "Percent Control", "setting": "PLK3", "result": 93, "unit": "%"}, {"measurement": "Percent Control", "setting": "VEGFR2", "result": 93, "unit": "%"}, {"measurement": "Percent Control", "setting": "ZAP70", "result": 100, "unit": "%"}, {"measurement": "Percent Control", "setting": "NEK5", "result": 100, "unit": "%"}, {"measurement": "Percent Control", "setting": "PAK3", "result": 100, "unit": "%"}, {"measurement": "Percent Control", "setting": "ABL2", "result": 100, "unit": "%"}, {"measurement": "Percent Control", "setting": "CIT", "result": 100, "unit": "%"}, {"measurement": "Percent Control", "setting": "RIOK3", "result": 90, "unit": "%"}, {"measurement": "Percent Control", "setting": "TNK2", "result": 86, "unit": "%"}, {"measurement": "Percent Control", "setting": "TRKB", "result": 100, "unit": "%"}, {"measurement": "Percent Control", "setting": "BRK", "result": 100, "unit": "%"}]}]}
